For data set [1] the following is noted: monotherapy; cited from earlier work.
The next data set has as its system HIV. Particulars: cited from earlier work.
In data set [2] the test system is HCV replicon RNA (Renilla luciferase HCV replicon cells 2209-23, human hepatoma Huh7). The data set can be described thus: Renilla luciferase HCV replicon assay. The class given is cell-based, hepatitis C virus (HCV). Particulars: Huh-7, 72 h; replicon cells 2209-23, incubated three days at 37° C.; concentration reducing replicon level by 50%.

The text below walks through data of patent publication US7378402B2, “Anti-viral nucleosides” (Roche Palo Alto LLC, priority 2004, dated 2008).

As to `CC(C)C(NC(=O)OC(C)(C)C)C(=O)OC[C@@]1(N=[N+]=[N-])O[C@@H](n2ccc(N)nc2=O)[C@@H](O)[C@@H]1O` (stereo partly shown), the melting point lay within 106.9 to 107.3 °C.
Take `NC(=O)c1ncn([C@@H]2O[C@H](CO)[C@@H](O)[C@H]2O)n1` [ribavirin, 1-((2R,3R,4S,5R)-3,4-Dihydroxy-5-hydroxymethyl-tetrahydro-furan-2-yl)-1H-[1,2,4]triazole-3-carboxylic acid amide]: in data set [1], the “effect on serum levels of HCV-RNA” value is “does not lower” and the “patients in whom serum amino transferase levels are reduced to normal” value is listed as 40%.
`CCCCCCCCCCCCCC(=O)OC[C@@]1(N=[N+]=[N-])O[C@@H](n2ccc(N)nc2=O)[C@@H](O)[C@@H]1O` came in with a melting point of 110.3 to 119.3 °C.
As to `C#CC1(CO)OC(n2ccc(N)nc2=O)C(O)C1O` (stereo not shown) [Compound 12a, 4-Ethynyl-cytarabine], the anti-HIV activity entry in the data set with HIV was “good anti-HIV activity”.
On to `CCCCC(=O)O[C@@H]1[C@H](n2ccc(N)nc2=O)O[C@@](CO)(N=[N+]=[N-])[C@H]1OC(=O)CCCC`, for which the melting point fell in the range of 160.4 to 162.2 °C.
Turning to `[N-]=[N+]=N[C@]1(CO)O[C@@H](n2ccc(N)nc2=O)[C@@H](O)[C@@H]1O` [Compound I-1, 4-Amino-1-((2R,3S,4S,5R)-5-azido-3,4-dihydroxy-5-hydroxymethyl-tetrahydro-furan-2yl)-1H-pyrimidin-2-one], it took 220 nM to reach half-maximal inhibition in data set [2] (IC50).
